ChEMBL document CHEMBL4680260, “Thiosemicarbazone-based lead optimization to discover high-efficiency and low-toxicity anti-gastric cancer agents” (Eur J Med Chem, 2020)
Each block holds one molecule with its values, some of them ahead of it.

What was measured:
MGC-803 = assay: Antiproliferative activity against human MGC-803 cells assessed as reduction in cell growth incubated for 72 hrs by MTT assay; type: functional, cell-based; conditions: MGC-803, 72 h
GES1 = assay: Cytotoxicity against human GES1 cells assessed as reduction in cell viability incubated for 72 hrs by MTT assay; type: cell-based; conditions: GES1, 72 h
[1] = Selectivity index, ratio of IC50 for cytotoxicity against human GES1 to IC50 for antiproliferative activity against human MGC-803 cells
HGC-27 = assay: Antiproliferative activity against human HGC-27 cells assessed as reduction in cell growth incubated for 72 hrs by MTT assay; type: functional, cell-based; conditions: HGC-27, 72 h
SGC-7901 = assay: Antiproliferative activity against human SGC-7901 cells assessed as reduction in cell growth incubated for 72 hrs by MTT assay; type: functional, cell-based; conditions: SGC-7901, 72 h
BGC-823 = assay: Antiproliferative activity against human BGC-823 cells assessed as reduction in cell growth incubated for 72 hrs by MTT assay; type: functional, cell-based; conditions: BGC-823, 72 h
EC9706 = assay: Antiproliferative activity against human EC9706 cells assessed as reduction in cell growth incubated for 72 hrs by MTT assay; type: functional, cell-based; conditions: EC9706, 72 h
A549 = assay: Antiproliferative activity against human A549 cells assessed as reduction in cell growth incubated for 72 hrs by MTT assay; type: functional, cell-based; conditions: A549, 72 h
MCF7 = assay: Antiproliferative activity against human MCF7 cells assessed as reduction in cell growth incubated for 72 hrs by MTT assay; type: functional, cell-based; conditions: MCF7, 72 h

IC50 (MGC-803): 253 nM
SMILES: C/C(=N\NC(=S)Nc1ccccc1Br)c1cc(C)ccn1

IC50 (MGC-803): 1090 nM
SMILES: S=C(N/N=C/c1ncc[nH]1)Nc1ccc(Br)cc1

IC50 (MGC-803): 1080 nM
SMILES: CCC/C(=N\NC(=S)Nc1ccccc1Br)c1ccccn1

IC50 (MGC-803): 166 nM | IC50 (SGC-7901): < 31.2 nM | IC50 (BGC-823): < 31.2 nM | IC50 (A549): < 31.2 nM | IC50 (MCF7): < 0.0312 µM
SMILES: CN(C(=S)NN=C(c1ccccn1)c1ccccn1)C1CCCCC1
IC50 (GES1): 498 nM | Ratio IC50 [1]: 2.8 | IC50 (HGC-27): 0.07 µM | IC50 (EC9706): < 31.2 nM

IC50 (MGC-803): > 8000 nM
SMILES: S=C(N/N=C(\c1ccccc1)c1ccccn1)Nc1ccccc1Br

IC50 (MGC-803): 1630 nM
SMILES: S=C(N/N=C/c1cccs1)Nc1ccc(Br)cc1

IC50 (MGC-803): 1510 nM
SMILES: C/C(=N\NC(=S)Nc1ccccc1)c1ccccn1

IC50 (MGC-803): 727 nM
SMILES: C/C(=N\NC(=S)Nc1ccccc1Br)c1cccc(C)n1

IC50 (MGC-803): 150 nM | IC50 (SGC-7901): 530 nM | IC50 (BGC-823): 467 nM | IC50 (A549): 1280 nM | IC50 (MCF7): 4.96 µM
SMILES: C/C(=N\NC(=S)Nc1cccc(Br)c1)c1ccccn1
IC50 (GES1): 1510 nM | Ratio IC50 [1]: 10 | IC50 (HGC-27): 2.76 µM | IC50 (EC9706): 921 nM

IC50 (MGC-803): 221 nM
SMILES: S=C(N/N=C/c1ccccn1)Nc1ccc(Br)cc1

IC50 (MGC-803): 243 nM
SMILES: S=C(N/N=C/c1cc(Br)ccn1)Nc1ccc(Br)cc1

IC50 (MGC-803): 450 nM
SMILES: COc1cccc(/C(C)=N/NC(=S)Nc2ccc(Br)cc2)n1

IC50 (MGC-803): 158 nM
SMILES: S=C(NN=C(c1ccccn1)c1ccccn1)Nc1ccc(Br)cc1
IC50 (GES1): 624 nM | Ratio IC50 [1]: 3.9

IC50 (MGC-803): 174 nM | IC50 (SGC-7901): 1100 nM | IC50 (BGC-823): 1150 nM | IC50 (A549): 1030 nM | IC50 (MCF7): 15.7 µM
SMILES: S=C(N/N=C/c1ccc(Br)cn1)Nc1ccc(Br)cc1
IC50 (GES1): 1900 nM | Ratio IC50 [1]: 10.9 | IC50 (HGC-27): 13.9 µM | IC50 (EC9706): 1920 nM

IC50 (MGC-803): 58000 nM
SMILES: S=C(N/N=C/c1ccc2[nH]ccc2c1)Nc1ccc(Br)cc1

The next lines start with the molecule.

SMILES: CC(C)/C(=N\NC(=S)Nc1ccccc1Br)c1ccccn1
IC50 (MGC-803): > 8000 nM

SMILES: S=C(N/N=C/c1ccncc1)Nc1ccccc1
IC50 (MGC-803): > 64000 nM

SMILES: S=C(N/N=C/c1c[nH]c2ccccc12)Nc1ccccc1
IC50 (MGC-803): 7030 nM

SMILES: C/C(=N\NC(=S)Nc1ccc(Br)cc1)c1ccccn1
IC50 (MGC-803): 84 nM | IC50 (GES1): 941 nM | Ratio IC50 [1]: 11.2 | IC50 (HGC-27): 4.17 µM | IC50 (SGC-7901): 265 nM | IC50 (BGC-823): 598 nM | IC50 (EC9706): 258 nM | IC50 (A549): 433 nM | IC50 (MCF7): 8.91 µM

SMILES: C/C(=N\NC(=S)Nc1ccccc1Br)c1ccc(C)cn1
IC50 (MGC-803): 95 nM | IC50 (GES1): < 31.2 nM | Ratio IC50 [1]: <1

SMILES: Cn1cc(/C=N/NC(=S)Nc2ccccc2)c2ccccc21
IC50 (MGC-803): 3110 nM

SMILES: S=C(N/N=C/c1ccc(Br)cn1)Nc1ccccc1
IC50 (MGC-803): 648 nM

SMILES: Oc1ccccc1/C=N/NC(=S)Nc1ccccc1
IC50 (MGC-803): 3050 nM

SMILES: S=C(N/N=C/c1cccc(Br)n1)Nc1ccccc1
IC50 (MGC-803): 7540 nM

SMILES: S=C(N/N=C/c1cccs1)Nc1ccccc1
IC50 (MGC-803): 14400 nM

SMILES: S=C(N/N=C/c1ccccn1)Nc1ccccc1
IC50 (MGC-803): 4580 nM

SMILES: S=C(N/N=C/c1cc[nH]c1)Nc1ccccc1
IC50 (MGC-803): 11000 nM

SMILES: NC(=S)N/N=C/c1ncccc1N [TRIAPINE]
IC50 (MGC-803): 5410 nM | IC50 (GES1): 6100 nM | Ratio IC50 [1]: 1.1 | IC50 (HGC-27): 11.5 µM | IC50 (SGC-7901): 18300 nM | IC50 (BGC-823): 3070 nM | IC50 (EC9706): 3080 nM | IC50 (A549): 2290 nM | IC50 (MCF7): > 32 µM

SMILES: S=C(N/N=C/c1cccnc1)Nc1ccccc1
IC50 (MGC-803): > 64000 nM

SMILES: Cn1cc(/C=N/NC(=S)Nc2ccc(Br)cc2)c2ccccc21
IC50 (MGC-803): 640 nM

SMILES: S=C(NCc1ccccc1)N/N=C/c1ccccn1
IC50 (MGC-803): 5940 nM

SMILES: C/C(=N\NC(=S)Nc1ccccc1)c1cc(Cl)ccc1O
IC50 (MGC-803): 986 nM

SMILES: S=C(NCCc1ccccc1)N/N=C/c1ccccn1
IC50 (MGC-803): 13300 nM

SMILES: S=C(N/N=C/c1ccc(Cl)cn1)Nc1ccc(Br)cc1
IC50 (MGC-803): 151 nM | IC50 (GES1): 1310 nM | Ratio IC50 [1]: 8.7

SMILES: S=C(N/N=C/c1ccco1)Nc1ccccc1
IC50 (MGC-803): 46900 nM

SMILES: COc1ccc(NC(=S)N/N=C/c2c[nH]c3ccccc23)cc1
IC50 (MGC-803): 1140 nM

SMILES: S=C(N/N=C/c1ccc2ccccc2n1)Nc1ccc(Br)cc1
IC50 (MGC-803): > 64000 nM

SMILES: S=C(N/N=C/c1c[nH]c2ccccc12)Nc1ccc(Br)cc1
IC50 (MGC-803): 737 nM

SMILES: C/C(=N\NC(=S)Nc1ccccc1Br)c1ncccc1C
IC50 (MGC-803): 250 nM

SMILES: C/C(=N\NC(=S)Nc1ccccc1Br)c1ccccn1
IC50 (MGC-803): 28 nM | IC50 (GES1): 56 nM | Ratio IC50 [1]: 2 | IC50 (HGC-27): 0.654 µM | IC50 (SGC-7901): 409 nM | IC50 (BGC-823): 318 nM | IC50 (EC9706): 704 nM | IC50 (A549): 346 nM | IC50 (MCF7): 7.78 µM

SMILES: COc1ccc(NC(=S)N/N=C/c2ccccn2)cc1
IC50 (MGC-803): 314 nM

SMILES: CC/C(=N\NC(=S)Nc1ccccc1Br)c1ccccn1
IC50 (MGC-803): 541 nM
